From patent US20150064221A1, “COMPOUNDS HAVING IMMUNOMUDULATOR ACTIVITY” (priority 2012, published 2015)
Like-named read-outs stand apart in the source and are kept apart here.

Legend:
LPS-induced lethality = test: LPS-induced lethality; type: in vivo, mice
Procedure: VGX-1027 was administered intraperitoneally (A) or orally (p.o.) (B), and its effect on cumulative rate of lethality induced by LPS was evaluated. Data from 2 to 3 independent experiments are shown. Statistical analysis was performed by logrank (Mantel-Cox). *p<0.05 was taken as significant. Each group is compared to the vehicle-treated group.
As expected, most of the control mice either untreated or that received the vehicle of VGX-1027 succumbed to LPS-challenge within 3 days. […] In contrast, the treatment with VGX-1027 given either orally or intraperitoneally administration protect the mice from the lethal effects of LPS in a dose-dependent fashion. When given orally, VGX-1027 was effective at the dose of […] and […] both at 1.5 and 3 mg/mouse.
Lipopolysaccharide (LPS) is the most studied of all TLR agonists because it induces both local and systemic inflammation, and responses to LPS mimic many of the features of tissue injury observed during infections with Gram-negative bacteria. Injection of LPS into mice triggers production of inflammatory cytokines and symptoms that are indistinguishable from those of septic shock.

[1] = Placebo-controlled ascending single-dose study in healthy subjects (CAT001); type: in vivo, human; settings: for Cmax / half-life / AUC / Tmax / AUC(0-t): human, in vivo, oral; for AUC(0-t): read-out: AUC (0-24)
Procedure: FIG. 21. […] Subjects were administered from 1 mg to 800 mg of VGX1027.
A placebo-controlled, ascending single-dose study was performed to evaluate the safety and pharmacokinetics of VGX-1027 in healthy human subjects. Study was performed upon 7 groups of subjects: group 1: 1 mg of VGX-1027 after fasting; group 2: 10 mg of VGX-1027 after fasting; group 3: 100 mg of VGX-1027 after fasting; group 4: 200 mg of VGX-1027 after fasting; group 5: 400 mg of VGX-1027 after fasting; group 6: 800 mg of VGX-1027 after fasting; and group 7: 100 mg of VGX-1027 after fasting, and after fed.

NF-kB = NF-kB activation in human macrophages; type: cell-based; settings: LPS induced, monocyte-derived human macrophages
[2] = system: systemic lupus erythematosus (SLE); test: NZB/NZW F1 model of systemic lupus erythematosus; type: in vivo, NZB/NZW F1 mice
Procedure: FIG. 19. Effects of VGX-1027 administration on survival rate (A), proteinuria (B) and serum anti-dsDNA antibodies (C) of NZB/NZW F1 mice treated for 20 weeks with either VGX-1027 or vehicle.
FIG. 20. Histopathological analysis (A) and relative phospho-STAT3 (B) levels in kidney sample of NZB/NZW F1 mice treated for 20 weeks with either VGX-1027 or vehicle.
To determine the effects of VGX-1027 on the development and progression of SLE, lupus-prone NZB/NZW F1 were treated daily with 5 mg/mouse VGX-1027 i.p. for 20 weeks, starting at 16 weeks of age. Control mice received an equal volume of vehicle. Control mice started to die at 20 weeks of age. By week 36, 62.5% of them were dead compared to the only 33.3% of treated mice (p=0.0487 by Log-rank test) (FIG. 19A). Improved survival was correlated with inhibition of renal disease. Proteinuria was assessed once a week. […] Eventually, all of the mice developed proteinuria but the delay in disease progression and prolonged survival of VGX-1027 treated animals remained evident (FIG. 19B).

Oral absorption in dogs = type: in vivo
Procedure: (§1) The highest plasma concentrations generally occurred in 1-2 hours. […] The highest level of inhibition was ˜35% for 2C19 at a 30 μM concentration. […] Lastly, VGX-1027 is stable in human liver S9 fractions (with phase 1 and 2 cofactors) with t1/2>90 minutes, which indicates a low likelihood of metabolism in the liver.

Metabolite monitoring = type: in vitro ADME; settings: isoxazole ring disruption, single oxidation, single glucuronidation; any species
Procedure: as §1

[3] = system: oxazolone-induced hypersensitivity; test: Oxazolone-induced dermatitis; type: in vivo, mice
[4] = 1 mg, single dose 1 mg, fasted, geometric mean
[5] = 10 mg, single dose 10 mg, fasted, geometric mean
[6] = 100 mg, Fasted vs Fed: 100 mg fasted, geometric mean
[7] = 100 mg, Fasted vs Fed: 100 mg fed, geometric mean
[8] = 100 mg, single dose 100 mg, fasted, geometric mean
[9] = 200 mg, single dose 200 mg, fasted, geometric mean
[10] = 400 mg, single dose 400 mg, fasted, geometric mean
[11] = 800 mg, single dose 800 mg, fasted, geometric mean
[12] = elicitation phase: one hour after second oxazolone exposure
[13] = treated during or before the sensitization phase

O=C(O)CC1CC(c2ccccc2)=NO1 (stereo not drawn) [VGX-1027, 3-phenyl-4,5-dihydro-5-isoxazoleacetic acid]
protection from LPS lethality (LPS-induced lethality; i.p., between 0.25 and 0.5 mg/mouse): dose-dependent protection
survival (LPS-induced lethality; lethal dose of LPS (1 mg/mice), i.p. or oral): increased the survival
protection from LPS lethality (LPS-induced lethality; oral, 2.5 mg/mouse): effective
protection from LPS lethality (LPS-induced lethality; oral, 1.5 and 3 mg/mouse): dosed out
LPS-induced lethality (LPS-induced lethality; prophylactic regime (−24 and −1 hour prior to LPS), oral and i.p.): significantly reducing
LPS-induced lethality (LPS-induced lethality; therapeutic administration): powerfully counteracts
Grade 3 or 4 AEs ([1]; human studies): No Grade 3 or 4 AEs were reported
SAEs ([1]; human studies): no SAEs were reported
Cmax [1, 4]: 50 ng/mL
half-life [1, 4]: 432 min
AUC ([1]; 1 mg, single dose 1 mg, fasted, geometric mean, read-out: AUC): 460 ng·h/mL
Tmax ([1]; 1 mg, single dose 1 mg, fasted, median): 1 h
Cmax [1, 5]: 1100 ng/mL
half-life [1, 5]: 294 min
AUC ([1]; 10 mg, single dose 10 mg, fasted, geometric mean, read-out: AUC): 4430 ng·h/mL
Tmax ([1]; 10 mg, single dose 10 mg, fasted, median): 0.5 h
Cmax [1, 6]: 6500 ng/mL
half-life [1, 6]: 354 min
AUC ([1]; 100 mg, Fasted vs Fed: 100 mg fasted, geometric mean, read-out: AUC): 37800 ng·h/mL
Tmax ([1]; 100 mg, Fasted vs Fed: 100 mg fasted, median): 1.25 h
Cmax [1, 7]: 4600 ng/mL
half-life [1, 7]: 378 min
AUC ([1]; 100 mg, Fasted vs Fed: 100 mg fed, geometric mean, read-out: AUC): 55700 ng·h/mL
Tmax ([1]; 100 mg, Fasted vs Fed: 100 mg fed, median): 3.5 h
Tmax ([1]; 100 mg, Single Dose (CAT001) 100 mg): 1.8 h
Cmax ([1]; 100 mg, Single Dose (CAT001) 100 mg, Geo Mean): 9070 ng/mL
Cmax [1, 8]: 9100 ng/mL
half-life [1, 8]: 528 min
AUC ([1]; 100 mg, single dose 100 mg, fasted, geometric mean, read-out: AUC): 74600 ng·h/mL
Tmax ([1]; 100 mg, single dose 100 mg, fasted, median): 1.75 h
Tmax ([1]; 200 mg, Single Dose (CAT001) 200 mg): 1.5 h
Cmax ([1]; 200 mg, Single Dose (CAT001) 200 mg, Geo Mean): 15700 ng/mL
AUC ([1]; 200 mg, Single Dose (CAT001) 200 mg, Geo Mean, read-out: AUC (AUC to 12 hours)): 78500 ng·h/mL
Cmax [1, 9]: 15700 ng/mL
half-life [1, 9]: 462 min
AUC ([1]; 200 mg, single dose 200 mg, fasted, geometric mean, read-out: AUC): 111000 ng·h/mL
Tmax ([1]; 200 mg, single dose 200 mg, fasted, median): 1.5 h
Cmax [1, 10]: 23800 ng/mL
half-life [1, 10]: 402 min
AUC ([1]; 400 mg, single dose 400 mg, fasted, geometric mean, read-out: AUC): 155000 ng·h/mL
Tmax ([1]; 400 mg, single dose 400 mg, fasted, median): 1.25 h
Cmax [1, 11]: 43200 ng/mL
half-life [1, 11]: 474 min
AUC ([1]; 800 mg, single dose 800 mg, fasted, geometric mean, read-out: AUC): 330000 ng·h/mL
Tmax ([1]; 800 mg, single dose 800 mg, fasted, median): 2 h
AUC(0-t) ([1]; Single Dose (CAT001) 100 mg, Geo Mean): 66800 ng·h/mL
AUC(0-t) ([1]; Single Dose (CAT001) 200 mg, Geo Mean): 98400 ng·h/mL
tolerability in humans ([1]; oral pill): safe and well-tolerated
dosing toxicities ([1]; up to 800 mg QD single dose): No dosing toxicities were observed
DNA binding of NF-kB (NF-kB): powerfully inhibits in a dose-dependent fashion
serum anti-dsDNA autoantibodies ([2]; 36-weeks old, p<0.0001): significant lower levels
anti-dsDNA antibodies ([2]; at 26 weeks of age): Only slightly increased levels
mice dead ([2]; by week 36, 5 mg/mouse i.p. daily for 20 weeks): 33.3%
renal histopathology mean score ([2]; end-stage nephritis, p=0.01): 1.9±0.8
relative levels of renal p-STAT3 (ELISA) ([2]; p=0.0234): significant reduction
levels of proteinuria ([2]; throughout the experimental period, p=0.0265): significantly lower
oral absorption (Oral absorption in dogs): rapidly absorbed
time of highest plasma concentrations (Oral absorption in dogs): 1 to 2 h
metabolite peaks for the 3 monitored masses (Metabolite monitoring): no metabolite peaks were observed
ear thickness [3, 12]: significant decrease
ear weight [3, 12]: not in weight
ear thickness [3, 13]: significantly suppressed
ear weight [3, 13]: significantly suppressed
